Laboratory results taken from ChEMBL document CHEMBL4321875, “Potent, Selective, Water Soluble, Brain-Permeable EP2 Receptor Antagonist for Use in Central Nervous System Disease Models” (J Med Chem, 2020).
Values after ≈ are worked out from the molar mass of the structure shown.

Key:
[1] = Aqueous solubility in PBS pH 7.4 incubated for 24 hrs by nephelometry; type: physicochemical
[2] = Stability in mouse liver microsomes assessed as half life at 1 uM incubated for 120 mins by LC-MS/MS analysis; type: ADME, Microsome; conditions: 2 h
[3] = Solubility of compound at 2 mg/ml incubated for 24 hrs by shake flask thermodynamic solubility method based HPLC analysis; type: physicochemical

| solubility kinetic at 24 h [1] [µM] | t1/2 [2] [min] | solubility thermodynamic at 24 h [3] [µM] | SMILES |
| --- | --- | --- | --- |
| 206 (≈ 75.1 µg/mL) | – | – | Cc1[nH]c2ccccc2c1CCNC(=O)c1ccc(N2CCOCC2)nc1 |
| 38 (≈ 14.2 µg/mL) | – | – | Cc1[nH]c2ccccc2c1CCNC(=O)c1cnc(Nc2ccncc2)nc1 |
| 45 (≈ 20.5 µg/mL) | – | – | Cc1cc(C)nc(Nc2ncc(C(=O)NCCc3c(C(F)(F)F)[nH]c4ccccc34)cn2)c1 |
| 25 (≈ 9.66 µg/mL) | 8 | – | Cc1ccnc(Nc2ncc(C(=O)NCCc3c(C)[nH]c4ccccc34)cn2)c1 |
| – | – | 700 | Cc1cc(C)nc(Nc2ncc(C(=O)NCCc3c(C(F)(F)F)[nH]c4ccccc34)cn2)c1.Cl |
| 100 (≈ 40 µg/mL) | – | – | Cc1ccc(Nc2ncc(C(=O)NCCc3c(C)[nH]c4ccccc34)cn2)c(C)n1 |

| SMILES | solubility kinetic at 24 h [1] [µM] | t1/2 [2] [min] | solubility thermodynamic at 24 h [3] [µM] |
| --- | --- | --- | --- |
| Cc1[nH]c2ccccc2c1CCNC(=O)c1ccc(N2CCOCC2)cc1 | 70 (≈ 25.4 µg/mL) | – | – |
